Test results from patent US6858607B1, “7,8-fused 4H-chromene and analogs as activators of caspases and inducers of apoptosis and the use thereof” (Cytovia, Inc., priority 2001, dated 2005).
pEC50: −log10 of the molar value.

What was measured:
T-47D = assay: Caspase cascade activation in T-47D cells (N-(Ac-DEVD)-N'-ethoxycarbonyl-R110 fluorogenic substrate); format: cell-based; conditions: T-47D human breast cancer cells, 24 h incubation; for T-47D Ratio (caspase activity): ratio of net RFU of test compound to control
Method: (§1) Human breast cancer cell lines T47D and ZR-75-1 were grown according to media component mixtures designated by American Type Culture Collection+10% FCS (Invitrogen Corporation), in approximately 5% CO2-95% humidity incubator at approximately 37° C. T-47D and ZR-75-1 cells were maintained at a cell density between 30 and 80% confluency at a cell density of 0.1 to 0.6×10^6 cells/mL. Cells were harvested at approximately 600×g and resuspended at approximately 0.65×10^6 cells/mL into appropriate media plus approximately 10% FCS. An aliquot of approximately 45 μl of cells was added to a well of a 96-well microtiter plate containing approximately 5 μl of a solution of approximately 10% DMSO in RPMI-1640 media solution containing approximately 0.16 to 10 μM of the test compounds (0.016 to 1 μM final). An aliquot of approximately 45 μl of cells was added to a well of a 96-well microtiter plate containing approximately 5 μl of a solution of approximately 10% DMSO in RPMI-1640 media solution without test compound as the control sample. The samples were mixed by agitation and then incubated at approximately 37° C. for approximately 24 h in approximately 5% CO2-95% humidity incubator. After incubation, the samples were removed from the incubator and approximately 50 μl of a solution containing approximately 20 μM of N-(Ac-DEVD)-N′-ethoxycarbonyl-R110 fluorogenic substrate, SEQ ID NO:1 (Cytovia, Inc.; U.S. Pat. No. 6,335,429), comprising approximately 20% sucrose (Sigma), 20 mM DTT (Sigma), 200 mM NaCl (Sigma), 40 mM Na PIPES buffer at approximate pH 7.2 (Sigma), and approximately 500 μg/ml lysolecithin (Calbiochem) was added. The samples were mixed by agitation and incubated at room temperature. Using a fluorescent plate reader (Model 1420 Wallac Instruments), an initial reading (T=0) was made approximately 1-2 min after addition of the substrate solution, employing excitation at 485 nm and emission at […], to determine the background fluorescence of the control sample. After the 3 h incubation, the samples were read for fluorescence as above (T=3 h).
(§2) The Relative Fluorescence Unit values (RFU) were used to calculate the sample readings as follows: RFU(T=3h)−Control RFU(T=0)=Net RFU(T=3h)
(§3) The activity of caspase cascade activation was determined by the ratio of the net RFU value for the test compounds to that of control samples. The EC50 (nM) was determined by a sigmoidal dose-response calculation (Prism 2.0, GraphPad Software Inc.).

ZR-75-1 = assay: Caspase cascade activation in ZR-75-1 cells (N-(Ac-DEVD)-N'-ethoxycarbonyl-R110 fluorogenic substrate); format: cell-based; conditions: ZR-75-1 human breast cancer cells, 24 h incubation; for ZR-75-1 Ratio (caspase activity): ratio of net RFU of test compound to control; for pEC50: sigmoidal dose-response
Method: as §1, §2, §3

Compound	pEC50 (T-47D; sigmoidal dose-response)	pEC50 (ZR-75-1)	T-47D EC50 (nM) (T-47D; sigmoidal dose-response)	T-47D Ratio (caspase activity) (T-47D)	ZR-75-1 Ratio (caspase activity) (ZR-75-1)
2-Amino-3-cyano-4-(3-bromo-4,5-dimethoxyphenyl)-4H-triazo[4,5-h]chromene [Example 1]	< 6.00	6.25	–	1.8	5.3
COc1cc(C2C(C#N)=C(N)Oc3c2ccc2oc(=O)[nH]c32)cc(Br)c1OC (centres unmarked) [Example 2, 2-Amino-3-cyano-4-(3-bromo-4,5-dimethoxyphenyl)-8-oxo-4,8,9-trihydro-oxazo[5,4-h]chromene]	6.25	6.44	–	6.4	8.5
COc1cc(C2C(C#N)=C(N)Oc3c2ccc2oc(=O)n(C)c32)cc(Br)c1OC (centres unmarked) [Example 3, 2-Amino-3-cyano-4-(3-bromo-4,5-dimethoxyphenyl)-8-oxo-4,8-dihydro-9-methyl-oxazo[5,4-h]chromene]	–	–	Inactive	1.5	2.7
COC=NC1=C(C#N)C(c2cc(Br)c(OC)c(OC)c2)c2ccc3ocnc3c2O1 (centres unmarked) [Example 4, 2-Methoxymethylimine-3-cyano-4-(3-bromo-4,5-dimethoxyphenyl)-4H-oxazo[5,4-h]chromene]	7.33	7.64	–	8.1	7.9

Further lines, with some results ahead:

pEC50 (T-47D; sigmoidal dose-response)	pEC50 (ZR-75-1)	T-47D EC50 (nM) (T-47D; sigmoidal dose-response)	Compound	T-47D Ratio (caspase activity) (T-47D)	ZR-75-1 Ratio (caspase activity) (ZR-75-1)
6.55	6.81	–	COc1cc(C2C(C#N)=C(N)Oc3c2ccc2[nH]c(=O)oc32)cc(Br)c1OC (centres unmarked) [Example 5, 2-Amino-3-cyano-4-(3-bromo-4,5-dimethoxyphenyl)-8-oxo-4,7,8-trihydro-oxazo[4,5-h]chromene]	8.6	4.5
7.93	–	–	COc1cc(C2C(C#N)=C(N)Oc3c2ccc2c3oc(=O)n2C)cc(Br)c1OC (centres unmarked) [Example 6, 2-Amino-3-cyano-4-(3-bromo-4,5-dimethoxyphenyl)-8-oxo-4,8-dihydro-7-methyl-oxazo[4,5-h]chromene]	6.5	–
7.16	7.37	–	COc1cc(C2C(C#N)=C(N)Oc3c2ccc2ncoc32)cc(Br)c1OC (centres unmarked) [Example 7, 2-Amino-3-cyano-4-(3-bromo-4,5-dimethoxyphenyl)-4H-oxazo[4,5-h]chromene]	7.8	9.8
7.45	7.89	–	COc1cc(C2C(C#N)=C(N)Oc3c2ccc2ocnc32)cc(Br)c1OC (centres unmarked) [Example 8, 2-Amino-3-cyano-4-(3-bromo-4,5-dimethoxyphenyl)-4H-oxazo[5,4-h]chromene]	7.9	7.2
